Source: patent publication US20240189221A1, “METHODS AND FORMULATIONS FOR TREATING VASCULAR DISEASE” (ENDOPERFUSION SOLUTIONS, LLC, priority 2015, published 2024)

Tested on: Human artery smooth muscle cells
Assay: Smooth muscle cell proliferation (cell count by flow cytometry)
Format: cell-based
Details: 0.01-1 μM, 48 h; FIG. 6, FIG. 7A
Experimental: Human artery smooth muscle cells were seeded at 20,000 cells per well on 24-well plates (3 wells per condition) in growth medium and allowed to adhere overnight at 37° C. […] Cells were washed with PBS, trypsinized, and counted using a flow cytometer (Beckman-Coulter FC500).

## COCc1c(C(C)C)nc(C(C)C)c(/C=C/[C@@H](O)C[C@@H](O)CC(=O)O)c1-c1ccc(F)cc1 [free cerivastatin, (3R,5S,6E)-7-[4-(4-fluorophenyl)-5-(methoxymethyl)-2,6-bis(propan-2-yl)pyridin-3-yl]-3,5-dihydroxyhept-6-enoic acid]
  proliferation of SMCs: inhibits the proliferation of SMCs
